Structures are written as SMILES. Like-named read-outs stand apart in the source and are kept apart here.

Assay [1] has as its system HCV chimeric replicon with NS5A of genotype 2b (AB03090). Nature of the assay: Cell-based HCV replicon assay (TaqMan), chimeric replicon genotype 2b (AB03090). The settings on record: replicon RNA by TaqMan, day 3. On the procedure: (§1) Measurement of inhibition by compounds of the present invention was performed using the HCV replicon system. Several different replicons encoding different HCV genotypes or mutations were used. In addition, potency measurements were made using different formats of the replicon assay, including different ways of measurements and different plating formats. See Jan M. Vrolijk et al., A replicons-based bioassay for the measurement of interferons in patients with chronic hepatitis C, 110 J. VIROLOGICAL METHODS 201 (2003); Steven S. Carroll et al., Inhibition of Hepatitis C Virus RNA Replication by 2′-Modified Nucleoside Analogs, 278(14) J. BIOLOGICAL […] 11979 (2003). However, the underlying principles are common to all of these determinations, and are outlined below.
(§2) Compounds of the present invention were assayed for cell-based anti-HCV activity using the following protocol. Replicon cells were seeded at 5000 cells/well in 96-well collagen I-coated Nunc plates in the presence of the test compound. Various concentrations of test compound, typically in 10 serial 2-fold dilutions, were added to the assay mixture, with the starting concentration ranging from 250 μM to 1 μM. The final concentration of DMSO was 0.5%, fetal bovine serum was 5%, in the assay media. Cells were harvested on day 3 by the addition of 1× cell lysis buffer (Ambion cat #8721). The replicon RNA level was measured using real time PCR (TaqMan® assay). The amplicon was located in 5B. The PCR primers were: 5B.2F, […] (SEQ. ID NO. 1); 5B.2R, […] (SEQ. ID NO. 2); the probe sequence was FAM-labeled […] (SEQ. ID NO. 3). GAPDH RNA was used as endogenous control and was amplified in the same reaction as NS5B (multiplex PCR) using primers and VIC-labeled probe recommended by the manufacturer (PE Applied Biosystem). The real-time RT-PCR reactions were run on ABI PRISM 7900HT Sequence Detection System using the following program: 48° C. for 30 minutes, 95° C. for 10 minutes, 40 cycles of 95° C. for 15 sec, 60° C. for 1 minute. The ΔCT values (CT5B-CTGAPDH) were plotted against the concentration of test compound and fitted to the sigmoid dose-response model using XLfit4 (MDL). […] Alternatively, to quantitate the absolute amount of replicon RNA, a standard curve was established by including serially diluted T7 transcripts of replicon RNA in the Taqman assay. All TaqMan® reagents were from PE Applied Biosystems. Such an assay procedure was described in detail in e.g. Malcolm et al., Antimicrobial Agents and Chemotherapy 50: 1013-1020 (2006).
(§3) Wherein gt1a_H77 was prepared as described in Yi et al., J Virol. 2004, 78(15):7904-15; gt1b_con1 was prepared as described in Lohmann et al., Science 1999, 285(5424):110-3; and gt2a_JFH was prepared as described in Kato et al., Gastroenterology. 2003, 125(6):1808-17. Chimeric replicons contain NS5A from patient isolates of genotypes 1a, 1b, 2b, 3a and 4a as indicated.

In assay [2] the test system is HCV chimeric replicon with NS5A of genotype 4a (DQ41878). Briefly: Cell-based HCV replicon assay (TaqMan), chimeric replicon genotype 4a (DQ41878). Particulars: read-out: HCV replicon EC50 4a (DQ41878). In a few lines:
(§4)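 Replicon cells seeded at 5000 cells/well with compound (10 serial 2-fold dilutions from 250 μM to 1 μM top dose; 0.5% DMSO, 5% FBS) and lysed on day 3. Replicon RNA quantified by multiplex TaqMan RT-PCR (NS5B amplicon, GAPDH control); ΔCT versus concentration fitted to sigmoid dose-response. Chimeras carry patient-isolate NS5A.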

In assay [3] the test system is HCV chimeric replicon with NS5A of genotype 3a (NC00982). Nature of the assay: Cell-based HCV replicon assay (TaqMan), chimeric replicon genotype 3a (NC00982). Particulars: replicon RNA by TaqMan, day 3. The method, boiled down: as §4
The subject of the next assay is HCV replicon gt2a_JFH. Briefly: Cell-based HCV replicon assay (TaqMan), genotype 2a (JFH). The settings on record: replicon 2a (JFH), replicon RNA by TaqMan, day 3. In a few lines: as §4
The test system of a further assay is HCV replicon gt1a_H77. Nature of the assay: Cell-based HCV replicon assay (TaqMan), genotype 1a (H77). Particulars: replicon 1a (H77), replicon RNA by TaqMan, day 3. In a few lines: as §4
Assay [4] deals with HCV replicon 1a (L31V) mutant. Briefly: Cell-based HCV replicon assay (TaqMan), genotype 1a mutant L31V. Particulars: read-out: HCV replicon EC50 1a (L31V). On the procedure: as §1, §2, §3
The test system of the next assay is HCV replicon gt1b_con1. Nature of the assay: Cell-based HCV replicon assay (TaqMan), genotype 1b (Con1). The settings on record: replicon 1b (Con1), replicon RNA by TaqMan, day 3. In a few lines:
as §4

Assay [5] has as its system HCV replicon 1a (Y93H) mutant. Briefly: Cell-based HCV replicon assay (TaqMan), genotype 1a mutant Y93H. The settings on record: read-out: HCV replicon EC50 1a (Y93H). The method, boiled down: as §4
Setting [6] is: Hepatitis C virus, 72 h, read-out: HCV replicon EC50 2b (AB03090), chimeric replicon 2b (AB03090).
The mark [7] stands for this setting: Hepatitis C virus, 72 h, read-out: HCV replicon EC50 3a (NC00982), chimeric replicon 3a (NC00982).

For `COC(=O)N[C@H](C(=O)N1C[Si](C)(C)C[C@H]1c1nc2ccc3cc(-c4ccc(-c5cnc([C@@H]6C[C@H]7C[C@H]7N6C(=O)[C@@H](NC(=O)OC)C(C)C)[nH]5)cc4)ccc3c2[nH]1)C(C)C` [Compound 97], the EC50 in assay [1] (setting [6]) came to 17.1 nM; in assay [2] (Hepatitis C virus, 72 h), 0.029 nM; in assay [3] (setting [7]) it was 0.09 nM; in the assay with HCV replicon gt2a_JFH (Hepatitis C virus, 72 h), 0.005 nM; with HCV replicon gt1a_H77 (Hepatitis C virus, 72 h), 5 pM; in assay [4] (Hepatitis C virus, 72 h), 15 nM. Moreover, the EC50 is 2 pM with HCV replicon gt1b_con1 (Hepatitis C virus, 72 h) and 30 nM in assay [5] (Hepatitis C virus, 72 h).
As to `COC(=O)N[C@H](C(=O)N1CC[C@H](C)[C@H]1c1ncc(-c2ccc(-c3ccc4c(ccc5nc([C@@H]6C[Si](C)(C)CN6C(=O)[C@@H](NC(=O)OC)C(C)C)[nH]c54)c3)cc2)[nH]1)C(C)C` [Compound 96], the EC50 turned out to be 49.3 nM in assay [1] (setting [6]); 0.936 nM in assay [2] (Hepatitis C virus, 72 h); 0.099 nM in assay [3] (setting [7]); 0.013 nM with HCV replicon gt2a_JFH (Hepatitis C virus, 72 h); 40 pM in the assay on HCV replicon gt1a_H77 (Hepatitis C virus, 72 h); 1 nM in assay [4] (Hepatitis C virus, 72 h). The EC50 with HCV replicon gt1b_con1 (Hepatitis C virus, 72 h) was 4 pM; in assay [5] (Hepatitis C virus, 72 h), 51 nM.
Regarding `COC(=O)N[C@H](C(=O)N1C[Si](C)(C)C[C@H]1c1ncc(-c2ccc(-c3ccc4c(ccc5nc([C@@H]6CC(F)(F)CN6C(=O)[C@@H](NC(=O)OC)C(C)C)[nH]c54)c3)cc2)[nH]1)C(C)C` [Compound 54], the EC50 in assay [1] (setting [6]) was 128 nM; in assay [2] (Hepatitis C virus, 72 h), 0.02 nM; in assay [3] (setting [7]) it was 0.18 nM; in the assay on HCV replicon gt2a_JFH (Hepatitis C virus, 72 h) it was 0.03 nM; in the assay on HCV replicon gt1a_H77 (Hepatitis C virus, 72 h) it was 9 pM; in assay [4] (Hepatitis C virus, 72 h) it was 10 nM. For the same compound, the EC50 was 2 pM in the assay on HCV replicon gt1b_con1 (Hepatitis C virus, 72 h) and 65 nM in assay [5] (Hepatitis C virus, 72 h).
With `COC(=O)N[C@H](C(=O)N1C[Si](C)(C)C[C@H]1c1ncc(-c2ccc(-c3ccc4c(ccc5nc([C@@H]6CC(F)(F)CN6C(=O)[C@@H](NC(=O)OC)C(C)C)[nH]c54)c3)cc2)[nH]1)C(C)C` [Compound 94], the EC50 in assay [1] (read-out: HCV replicon EC50 2b (AB03090), chimeric replicon 2b (AB03090)) was 129 nM; in assay [2] (chimeric replicon 4a (DQ41878), replicon RNA by TaqMan, day 3) it was 0.02 nM; in assay [3] (read-out: HCV replicon EC50 3a (NC00982), chimeric replicon 3a (NC00982)), 0.2 nM; in the assay with HCV replicon gt2a_JFH it was 0.03 nM; in the assay with HCV replicon gt1a_H77, 8 pM; in assay [4] (replicon 1a mutant L31V, replicon RNA by TaqMan, day 3), 10 nM. The EC50 in the assay with HCV replicon gt1b_con1 was found to be 2 pM; in assay [5] (replicon 1a mutant Y93H, replicon RNA by TaqMan, day 3), 65 nM.

The values above are taken from patent US8609635B2, “Fused tricyclic silyl compounds and methods of use thereof for the treatment of viral diseases” (priority 2010, dated 2013).
